Laboratory results taken from patent US8399520B2, “Selective estrogen receptor modulator” (Eisai R&D Management Co., Ltd., priority 2002, dated 2013).

Assays:
[1] = target: T1, estrogen receptor derived from bovine uterus (Bos taurus, UniProt P49884); assay: In vitro estrogen receptor binding assay; settings: read-out: Estrogen receptor binding affinity: Ki
T1 construct: estrogen receptor derived from bovine uterus was diluted with the assay buffer solution so that 10 to 20 μg total protein was present; from tissue; host or cells: bovine uterus
T1 sequence (P49884 1-596): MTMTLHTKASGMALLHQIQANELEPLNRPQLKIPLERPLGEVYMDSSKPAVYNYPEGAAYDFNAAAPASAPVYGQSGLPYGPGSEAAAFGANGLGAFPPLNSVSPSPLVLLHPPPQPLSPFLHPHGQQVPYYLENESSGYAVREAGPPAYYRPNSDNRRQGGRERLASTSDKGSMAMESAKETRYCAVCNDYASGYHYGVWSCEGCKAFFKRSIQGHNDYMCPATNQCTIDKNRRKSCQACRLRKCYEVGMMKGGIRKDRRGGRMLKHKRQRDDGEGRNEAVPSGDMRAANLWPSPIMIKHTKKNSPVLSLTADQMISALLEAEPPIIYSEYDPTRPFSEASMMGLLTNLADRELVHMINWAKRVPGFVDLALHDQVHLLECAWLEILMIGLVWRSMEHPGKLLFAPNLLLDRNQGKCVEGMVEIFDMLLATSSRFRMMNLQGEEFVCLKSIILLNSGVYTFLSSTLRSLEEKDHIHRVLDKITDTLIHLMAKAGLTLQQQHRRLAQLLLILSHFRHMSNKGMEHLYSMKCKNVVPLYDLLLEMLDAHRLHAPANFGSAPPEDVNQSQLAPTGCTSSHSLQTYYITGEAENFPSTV
Description: The binding affinity of the compound according to the present invention to estrogen receptor was measured using an in vitro estrogen receptor binding assay. The binding affinity measures the ability of the compound according to the present invention to remove [^3H]-estradiol from estrogen receptor derived from bovine uterus. The following materials were used in this assay: (1) the assay buffer solution was 20 mM Tris/HCl (pH 7.5) containing 1 mM dithiothreitol (DTT), 1 mM EDTA and 10% glycerol; (2) radioactive ligand was [^3H]-estradiol purchased from Amersham Life Science; (3) the cold ligand was diethylstilbestrol purchased from sigma (Sigma); and (4) the estrogen receptor was derived from bovine uterus. The compound to be tested was prepared as a 10% DMSO solution. [^3H]-estradiol was dissolved in the assay buffer solution so as to obtain a final concentration of 1 nM. […] Each plate contains total binding, non-specific binding and the binding which were not inhibited by various concentrations of the compound. The plate was incubated for 1 hour at room temperature. […] These mixtures were centrifuged, and the supernatant thereof was evaluated for its radioactivity using a liquid scintillation counter. Specific binding was calculated by subtracting non-specific binding dpm (counts remaining in the supernatant obtained by centrifugal separation of a reaction mixture containing estrogen receptor derived from bovine uterus, radioactive ligand and excess cold ligand) from the total binding dpm (counts remaining in the supernatant obtained by centrifugal separation of a reaction mixture containing estrogen receptor derived from bovine uterus and radioactive ligand only). The effectiveness of the compound was evaluated by Ki. […] C is the concentration of [^3H]-estradiol in the reaction mixture, and Kd is the [^3H]-estradiol dissociation constant. The Kd was determined by Scatchard analysis. That is to say, various concentrations of [^3H]-estradiol were used to measure the concentration of specifically bound [^3H]-estradiol, which served as the horizontal axis, the value which was obtained by dividing the concentration of specifically bound [^3H]-estradiol by the concentration [^3H]-estradiol not bound to the receptor served as the vertical axis to produce a plot, and the negative value of the inverse of the slope of the resulting straight line was used as Kd.

[2] = system: MCF-7 breast cancer cells; assay: MCF-7 growth analysis (estrogen agonist and antagonist activity, MTT assay); format: cell-based; settings: Homo sapiens; for activity at 0.1 µM: MCF7, MCF-7, 72 hours, growth rate of diluent control = 100, of 17β-estradiol (1 nM) = 200, read-out: Agonist activity: growth rate (100 nM test compound); for IC50: MCF7, MCF-7 growth with 17β-estradiol (10 pM) present simultaneously, 72 hours
Description: Test Example 2 determines the estrogen agonist and antagonist activities of the compound according to the present invention in reproduction system cells. […] The present test was carried out according to the following procedures. MCF-7 breast cancer cells were cultured in the preservation medium until the compound evaluation. The preservation medium is the MEM (minimum essential medium, phenol red-free, Gibco, ##51200-038) supplemented with 10% (volume/volume) fetal bovine serum (FBS), 2 mM L-glutamine, 1 mM sodium pyruvate, non-essential amino acids (0.1 mM, Gibco, #15240-062), and antibiotic-antimycotic solution ( 1/50 of culture medium volume, Gibco). Five days prior to analysis, the preservation medium was exchanged with analytical medium to which 10% charcoal-stripped fetal bovine serum (charcoal-FBS) was added instead of 10% FBS, so as to deprive the MCF-7 cells of endogenous steroids. Twenty-four hours after exchange to the analytical medium, the MCF-7 cells were removed from the preservation flask using cell isolation medium (trypsin-EDTA solution, Gibco). The cells were washed with analytical medium once, and cell suspension at 50,000 cell/ml was prepared using the analytical medium. The prepared cell suspension was added to a 96 well flat-bottomed microculture at […] (5,000 cells) per well, the cells were cultured in a 5% CO2 incubator for 24 hours at 37° C., to equilibrate the cells after cell transfer. […] The cells were further cultured in the 5% CO2 incubator for 72 hours at 37° C. After culturing, the cell growth was examined by the MTT assay. MTT assay was carried out as the following protocols. MTT solution at 8 mg/ml (MTT dissolved in phosphate saline water buffer) was added to the microculture at 10 μl/well, and the cells were cultured in the 5% CO2 incubator for 30 minutes at 37° C. Thereafter, resulting from the reduction of MTT by the cells, formazan crystals were dissolved by adding a dissolution buffer (400 g/l of an aqueous solution of SDS (50%) and dimethylformamide (50%)) to the microculture at 100 μl/well, and incubated the microculture for more than 4 hours in the dark. For each well of the microculture, the optical density at 590 nm due to the dissolved formazan crystals was measured.

ovariectomized rats [3] = assay: Bone resorption in ovariectomized rats: deoxypyridinoline in urine; format: in vivo, rat; settings: for Deoxypyridinoline, 5 weeks / Deoxypyridinoline, 8 weeks: OVX rats, urine; for Effect on excretion of deoxypyridinoline in urine (in words): ovariectomized rats, after 5 and 8 weeks administrations
Excerpt: (§1) Ten weeks old Female Fischer rats (F344/N, Japan SLC, Shizuoka, Japan) were used. Rats were grouped to eliminate the effect of body weight between each group and housed with free access to food and water. Animals were anesthetized with Nembutal (Abbott Laboratories, Chicago, Ill.) and the ovaries were removed. In sham-operated group, ovaries were only touched with tweezers. Administration of compounds was started one day after the operation.
(§2) Estradiol (Sigma-Aldrich, St. Louis, Mo.) was dissolved in DMSO to 150 mg/mL then diluted with sesame oil to 0.15 mg/mL. The compounds in Examples 736 and 814, and Raloxifene were suspended in sesame oil to 5, 5 and 1.5 mg/mL, respectively. Samples were divided into aliquots for daily administration and preserved at −18° C. until use.
(§3) The samples were orally administered at 2 mL/kg. Administration was carried out once a day from Monday to Friday for 8 weeks.
Urine was gathered overnight (17 hours) using the metabolic cage under fasting. The amount of urinary deoxypyridinoline was measured with ELISA kit, Osteorincs-DPD (Sumitomo Seiyaku Biomedical Co., Ltd., Osaka, Japan) and evaluated as total amount produced in 17 hours or as the amount per 1 mg of creatinine.

ovariectomized rats [4] = assay: Ovariectomized rats: bone density of femur and fifth lumbar vertebrae; format: in vivo, rat; settings: for Bone Mineral Density, Distal femur / Bone Mineral Density, Lumber 5 / Bone Mineral Density, Whole femur: OVX rats, 8 weeks; for Effect on bone mineral density of femur and fifth lumbar vertebrae (in words): ovariectomized rats, eight weeks after ovariectomy, compared with sham-operated rats
Excerpt: as §1, §2, §3
After animals were sacrificed by decapitation, left femur and the fifth lumbar vertebrae were removed. The bone density was measured by using QDR-1000/W (Ho logic Inc., Bedford, Mass.).

ovariectomized rats [5] = assay: Ovariectomized rats: uterus wet weight; format: in vivo, rat; settings: rat, in vivo
Excerpt: as §1, §2, §3
After animals were sacrificed by decapitation, uterus was removed and adipose tissue and vagina was separated from uterus prior to uterus weight measurement.

[6] = 10 mg/kg orally once a day Monday to Friday
[7] = 3 mg/kg orally once a day Monday to Friday

Structure (SMILES)	Ki [1] [nM]	activity at 0.1 µM [2] [%]	IC50 [2] [nM]	Deoxypyridinoline, 5 weeks (ovariectomized rats [3]; [6]) [nM/mg/dl]	Deoxypyridinoline, 8 weeks (ovariectomized rats [3]; [6]) [nM/mg/dl]	Effect on excretion of deoxypyridinoline in urine (in words) (ovariectomized rats [3])	Bone Mineral Density, Distal femur (ovariectomized rats [4]; 10 mg/kg orally) [g/cm^2]	Bone Mineral Density, Lumber 5 (ovariectomized rats [4]; 10 mg/kg orally) [g/cm^2]	Bone Mineral Density, Whole femur (ovariectomized rats [4]; 10 mg/kg orally) [g/cm^2]	Effect on bone mineral density of femur and fifth lumbar vertebrae (in words) (ovariectomized rats [4])	Effect on uterus wet weight (in words) (ovariectomized rats [5])	Deoxypyridinoline, 5 weeks (ovariectomized rats [3]; [7]) [nM/mg/dl]	Deoxypyridinoline, 8 weeks (ovariectomized rats [3]; [7]) [nM/mg/dl]	Bone Mineral Density, Distal femur (ovariectomized rats [4]; 3 mg/kg orally) [g/cm^2]	Bone Mineral Density, Lumber 5 (ovariectomized rats [4]; 3 mg/kg orally) [g/cm^2]	Bone Mineral Density, Whole femur (ovariectomized rats [4]; 3 mg/kg orally) [g/cm^2]
CCNCCc1ccc(CN(CC)c2cc(OC)ccc2[C@@H]2CCc3cc(O)ccc3C2)cc1 [Example 736, (R)-6-{2-{Ethyl[4-(2-ethylaminoethyl)benzyl]amino}-4-methoxyphenyl}-5,6,7,8-tetrahydronaphthalen-2-ol]	6	73	0.74	10.48 ± 0.52	15.33 ± 0.78	significantly attenuated the excretion of deoxypyridinoline	0.256 ± 0.002	0.156 ± 0.003	0.241 ± 0.002	preserved bone mineral density at the level in sham-operated rats	did not influence the wet weight of the uterus at all					
COc1ccc([C@@H]2CCc3cc(O)ccc3C2)c(N(CCO)Cc2ccc(OCC(C)(C)N(C)C)cc2)c1 [Example 814, (R)-6-{2-[[4-(2-Dimethylamino-2-methylpropoxy)benzyl](2-hydroxyethyl)amino]-4-methoxyphenyl}-5,6,7,8-tetrahydronaphthalen-2-ol]	8.4	95	3.23	11.22 ± 1.12	15.48 ± 0.98	significantly attenuated the excretion of deoxypyridinoline	0.248 ± 0.002	0.159 ± 0.001	0.237 ± 0.002	preserved bone mineral density at the level in sham-operated rats	slightly increased uterus wet weight to the same level					
O=C(c1ccc(OCCN2CCCCC2)cc1)c1c(-c2ccc(O)cc2)sc2cc(O)ccc12 [Raloxifene, 6-hydroxy-2-(4-hydroxyphenyl)-3-[4-(2-piperidinoethoxy)benzoyl]benz[b]thiophene, reference compound]											slightly increased uterus wet weight to the same level	8.83 ± 0.41	10.87 ± 1.16	0.254 ± 0.002	0.160 ± 0.003	0.239 ± 0.002
